Measured values published in patent US8227407B2, “Macrocyclic inhibitors of hepatitis C virus” (Medivir AB, priority 2008, dated 2012).

Tests used:
[1] = tested on: HCV replicons (Huh-7 luc/neo cells, NS3-NS5B regions of HCV type 1b); experiment: HCV replicon assay (Huh-Luc cells, luciferase readout); format: cell-based; conditions: Hepatitis C virus, Huh-7, 72 h, three days incubation, luciferase activity
Description: The in vitro antiviral activity against HCV of the compounds of formula (I) was tested in a cellular HCV replicon system based on Lohmann et al. (1999) Science 285:110-113, with the further modifications described by Krieger et al. (2001) Journal of Virology 75: 4614-4624, which is further exemplified in the examples section. This model, while not a complete infection model for HCV, is widely accepted as the most robust and efficient model of autonomous HCV RNA replication currently available. […] It will be appreciated that it is important to distinguish between compounds that specifically interfere with HCV functions from those that exert cytotoxic or cytostatic effects in the HCV replicon model, and as a consequence cause a decrease in HCV RNA or linked reporter enzyme concentration. […]
The replicon cells were plated in 384 well plates in the presence of the test and control compounds which were added in various concentrations. Following an incubation of three days, HCV replication was measured by assaying luciferase activity (using standard luciferase assay substrates and reagents and a Perkin Elmer ViewLux™ ultraHTS microplate imager). […] The inhibitory activity of the compound on luciferase activity was monitored on the Huh-Luc cells, enabling a dose-response curve for each test compound. […]

[2] = target: T1, full-length hepatitis C NS3 protease enzyme with NS4A cofactor (HCV NS3/4A protease) (Hepatitis C virus genotype 1a, UniProt P27958); experiment: HCV NS3/4A protease inhibition assay (enzymatic); format: biochemical; conditions: 1 nM enzyme, 25 μM NS4A cofactor, 0.5 μM depsipeptide substrate, 30° C., competitive inhibition model
T1 construct: full-length hepatitis C NS3 protease enzyme
T1 sequence (P27958 1027-1657): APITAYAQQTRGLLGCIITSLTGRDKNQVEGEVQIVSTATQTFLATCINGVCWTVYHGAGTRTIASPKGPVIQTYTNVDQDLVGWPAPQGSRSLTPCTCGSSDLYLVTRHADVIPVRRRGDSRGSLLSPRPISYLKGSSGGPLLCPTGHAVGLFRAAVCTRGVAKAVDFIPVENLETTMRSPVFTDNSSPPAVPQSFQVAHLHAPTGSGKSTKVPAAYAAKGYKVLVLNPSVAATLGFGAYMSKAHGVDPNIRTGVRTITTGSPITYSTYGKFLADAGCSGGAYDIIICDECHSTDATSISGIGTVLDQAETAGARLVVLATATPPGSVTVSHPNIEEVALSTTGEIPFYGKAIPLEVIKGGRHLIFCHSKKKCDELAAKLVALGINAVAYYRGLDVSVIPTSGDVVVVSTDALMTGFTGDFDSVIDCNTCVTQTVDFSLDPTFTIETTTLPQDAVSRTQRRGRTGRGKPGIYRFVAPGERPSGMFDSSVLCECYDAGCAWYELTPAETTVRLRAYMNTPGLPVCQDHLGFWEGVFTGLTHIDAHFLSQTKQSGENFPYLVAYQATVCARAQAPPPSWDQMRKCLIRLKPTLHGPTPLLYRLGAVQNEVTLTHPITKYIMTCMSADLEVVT
Description: The aim of this in vitro assay was to measure the inhibition of HCV NS3/4A protease complexes by the compounds of the present invention. This assay provides an indication of how effective compounds of the present invention would be in inhibiting HCV NS3/4A proteolytic activity.
The inhibition of full-length hepatitis C NS3 protease enzyme was measured essentially as described in Poliakov, 2002 Prot Expression & Purification 25 363 371. Briefly, the hydrolysis of a depsipeptide substrate, Ac-DED(Edans)EEAbuψ[COO]ASK(Dabcyl)-NH2 (AnaSpec, San José, USA), was measured spectrofluorometrically in the presence of a peptide cofactor, KKGSVVIVGRIVLSGK (Åke Engström, Department of Medical Biochemistry and Microbiology, Uppsala University, Sweden). [Landro, 1997 #Biochem 36 9340-9348]. The enzyme (1 nM) was incubated in 50 mM HEPES, pH 7.5, 10 mM DTT, 40% glycerol, 0.1% n-octyl-D-glucoside, with 25 μM NS4A cofactor and inhibitor at 30° C. for 10 min, whereupon the reaction was initiated by addition of 0.5 μM substrate. Inhibitors were dissolved in DMSO, sonicated for 30 sec. and vortexed. The solutions were stored at −20° C. between measurements.
The final concentration of DMSO in the assay sample was adjusted to 3.3%. The rate of hydrolysis was corrected for inner filter effects according to published procedures. [Liu, 1999 Analytical Biochemistry 267 331-335]. […]

SMILES	EC50 [1] [µM]	Ki [2] [nM]
COc1ccc2c(O[C@@H]3C[C@H]4C(=O)N[C@]5(C(=O)NS(=O)(=O)N(C)C)C[C@H]5/C=C\CCCCN(C)C(=O)[C@@H]4C3)cc(-c3nc(C(C)C)cs3)nc2c1 [Compound 37, N-[17-[2-(4-isopropylthiazol-2-yl)-7-methoxyquinolin-4-yloxy]-13-methyl-2,14-dioxo-3,13-diazatricyclo[13.3.0.0^4,6]octadec-7-ene-4-carbonyl](dimethylamino)sulfonamide]	0.3	24
CCN(C)S(=O)(=O)NC(=O)[C@@]12C[C@H]1/C=C\CCCCN(C)C(=O)[C@@H]1C[C@H](Oc3cc(-c4nc(C(C)C)cs4)nc4cc(OC)ccc34)C[C@H]1C(=O)N2 [Compound 38, N-[17-[2-(4-isopropylthiazol-2-yl)-7-methoxyquinolin-4-yloxy]-13-methyl-2,14-dioxo-3,13-diazatricyclo[13.3.0.0^4,6]octadec-7-ene-4-carbonyl]-[(ethyl)(methyl)amino]sulfonamide]	0.3	24
